{"source": "patent US20220265629A1", "about": "“TREATMENT OF SYSTOLIC DYSFUNCTION AND HEART FAILURE WITH REDUCED EJECTION FRACTION WITH THE COMPOUND (R)-4-(1-((3-(DIFLUOROMETHYL)-1-METHYL-1H-PYRAZOL-4-YL)SULFONYL)-1-FLUOROETHYL)-N-(ISOXAZOL-3-YL)PIPERIDINE-1-CARBOXAMIDE” (MyoKardia, Inc., priority 2019, published 2022)", "test_system": "healthy subjects", "assay": "Single ascending oral dose study in healthy volunteers: transthoracic echocardiography (TTE) pharmacodynamics", "type": "in vivo, human", "procedure": "To assess pharmacodynamic effects, serial echocardiograms were performed. The sonographers used in the study completed Echo protocol training and submitted an example of a study for evaluation to the core laboratory for evaluation. The core TTE lab certified that the sonographer was able to perform the TTEs at a level satisfactory for obtaining the required protocol data.\nThese criteria were chosen to prevent subjects from having prolongation of SET that might lead to myocardial ischemia. Dose escalation stopping criteria also included observation of a Baseline-corrected, group mean relative increase of >20% in any 2 sequential TTE assessments in at least 2 measures of LV contractility: LVOT-VTI, LVFS, LVEF, or LVSV in subjects receiving Compound I. Placebo-controlled evaluation may have been considered. For this comparison, subjects who received placebo may have been pooled across cohorts.\nSET as determined by TTE was assessed using summary statistics. Observations and change from Baseline were summarized by treatment at each time point and the maximum change from Baseline determined for each subject. In addition, categorical analyses were performed on the number of subjects with a change from Baseline>50 msec and the number of subjects with a change from Baseline>75 msec in 1 or any 2 sequential TTE assessments. The relationship to Compound I plasma concentration to SET was explored. An analysis of SET placebo-adjusted change from Baseline was also performed.\nAs the Cmax occurred at between 4 and 6 hours in most of the subjects, the TTE obtained at 6 hours postclose was considered the best timepoint to explore the relationship between concentration and pharmacological effect. TTEs obtained at 1.5 and 3 hours after dosing were before the Cmax and at 9 hours were after the peak Cmax. Based on the preclinical data, it was considered unlikely that there would be a prolonged lag between the Cmax and peak pharmacological effect. As the exposure after the administration of the 350 mg and 525 mg doses were very similar, it was decided to not only present the results from these groups separately, but also to combine the data from these groups. By combining the data from the 2 groups, the number of subjects closed was increased from 6 to 12, thus increasing the power to observe a statistically significant change from Baseline in the TTE parameters of interest.\nAn analysis of placebo-corrected change from Baseline at 6 hours postclose by Compound I plasma concentration bins is presented in Table 6 below.", "key": {"[1]": {"conditions": "6 hours post-dose, plasma 1001-2000 ng/mL"}, "[2]": {"conditions": "6 hours post-dose, plasma >2000 ng/mL"}, "[3]": {"conditions": "concentration exceeded 2000 ng/mL (median 2592 ng/mL)"}, "[4]": {"conditions": "plasma concentrations >2000 ng/mL, 6 hours postdose"}}}
{"molecule": "Cn1cc(S(=O)(=O)[C@@](C)(F)C2CCN(C(=O)Nc3ccon3)CC2)c(C(F)F)n1", "note": "[Compound I, (R)-4-(1-((3-(difluoromethyl)-1-methyl-1H-pyrazol-4-yl)sulfonyl)-1-fluoroethyl)-N-(isoxazol-3-yl)piperidine-1-carboxamide]", "values": [{"measurement": "LVFS placebo-corrected change from Baseline (LS mean difference)", "setting": "[1]", "result": 3.549, "unit": "%"}, {"measurement": "LVGCS placebo-corrected change from Baseline (LS mean difference)", "setting": "[1]", "result": "−1.383", "unit": "%"}, {"measurement": "LVGLS placebo-corrected change from Baseline (LS mean difference)", "setting": "[1]", "result": "−1.274", "unit": "%"}, {"measurement": "MPI placebo-corrected change from Baseline (LS mean difference)", "setting": "[1]", "result": "−0.021"}, {"measurement": "PEP placebo-corrected change from Baseline (LS mean difference)", "setting": "[1]", "result": -5.487, "unit": "ms"}, {"measurement": "Peak A placebo-corrected change from Baseline (LS mean difference)", "setting": "[1]", "result": -2.87, "unit": "cm/s"}, {"measurement": "Peak E placebo-corrected change from Baseline (LS mean difference)", "setting": "[1]", "result": -1.43, "unit": "cm/s"}, {"measurement": "SBP placebo-corrected change from Baseline (LS mean difference)", "setting": "[1]", "result": 1.132, "unit": "mm Hg"}, {"measurement": "SET placebo-corrected change from Baseline (LS mean difference)", "setting": "[1]", "result": 23.049, "unit": "ms"}, {"measurement": "Stroke Volume placebo-corrected change from Baseline (LS mean difference)", "setting": "[1]", "result": 2.509, "unit": "mL"}, {"measurement": "DBP placebo-corrected change from Baseline (LS mean difference)", "setting": "[2]", "result": 1.540, "unit": "mm Hg"}, {"measurement": "E/A ratio placebo-corrected change from Baseline (LS mean difference)", "setting": "[2]", "result": "−0.047"}, {"measurement": "E/e′(lateral) placebo-corrected change from Baseline (LS mean difference)", "setting": "[2]", "result": "−0.063"}, {"measurement": "HR placebo-corrected change from Baseline (LS mean difference)", "setting": "[2]", "result": 2.871, "unit": "bpm"}, {"measurement": "IVCT placebo-corrected change from Baseline (LS mean difference)", "setting": "[2]", "result": 6.115, "unit": "ms"}, {"measurement": "IVRT placebo-corrected change from Baseline (LS mean difference)", "setting": "[2]", "result": 11.986, "unit": "ms"}, {"measurement": "LVEDD placebo-corrected change from Baseline (LS mean difference)", "setting": "[2]", "result": "−0.115", "unit": "cm"}, {"measurement": "LVEDV placebo-corrected change from Baseline (LS mean difference)", "setting": "[2]", "result": -9.678, "unit": "mL"}, {"measurement": "LVEF placebo-corrected change from Baseline (LS mean difference)", "setting": "[2]", "result": 3.219, "unit": "%"}, {"measurement": "LVESD placebo-corrected change from Baseline (LS mean difference)", "setting": "[2]", "result": "−0.306", "unit": "cm"}, {"measurement": "LVESV placebo-corrected change from Baseline (LS mean difference)", "setting": "[2]", "result": -6.031, "unit": "mL"}, {"measurement": "LVFS placebo-corrected change from Baseline (LS mean difference)", "setting": "[2]", "result": 6.289, "unit": "%"}, {"measurement": "LVGCS placebo-corrected change from Baseline (LS mean difference)", "setting": "[2]", "result": "−2.854", "unit": "%"}, {"measurement": "LVGLS placebo-corrected change from Baseline (LS mean difference)", "setting": "[2]", "result": "−1.779", "unit": "%"}, {"measurement": "MPI placebo-corrected change from Baseline (LS mean difference)", "setting": "[2]", "result": 0.033}, {"measurement": "PEP placebo-corrected change from Baseline (LS mean difference)", "setting": "[2]", "result": -2.131, "unit": "ms"}, {"measurement": "Peak A placebo-corrected change from Baseline (LS mean difference)", "setting": "[2]", "result": 657000, "unit": "×10⁻⁶ cm/s"}, {"measurement": "Peak E placebo-corrected change from Baseline (LS mean difference)", "setting": "[2]", "result": -5.3, "unit": "cm/s"}, {"measurement": "SBP placebo-corrected change from Baseline (LS mean difference)", "setting": "[2]", "result": "−1.572", "unit": "mm Hg"}, {"measurement": "SET placebo-corrected change from Baseline (LS mean difference)", "setting": "[2]", "result": 25.645, "unit": "ms"}, {"measurement": "Stroke Volume placebo-corrected change from Baseline (LS mean difference)", "setting": "[2]", "result": 8.197, "unit": "mL"}, {"measurement": "LVEDD, mean decrease", "setting": "[3]", "result": 0.12, "unit": "cm"}, {"measurement": "LVEDV, mean decrease", "setting": "[3]", "result": 9.68, "unit": "mL"}, {"measurement": "LVEF, mean absolute increase", "setting": "[3]", "result": 3.2, "unit": "%"}, {"measurement": "LVESD, mean decrease", "setting": "[3]", "result": 0.31, "unit": "cm"}, {"measurement": "LVESV, mean decrease", "setting": "[3]", "result": 6.03, "unit": "mL"}, {"measurement": "LVFS, mean absolute increase", "setting": "[3]", "result": 6.3, "unit": "%"}, {"measurement": "LVGCS, mean absolute decrease", "setting": "[3]", "result": 2.85, "unit": "%"}, {"measurement": "LVGLS, mean absolute decrease", "setting": "[3]", "result": 1.78, "unit": "%"}, {"measurement": "LVSV, mean increase", "setting": "[3]", "result": 8.2, "unit": "%"}, {"measurement": "SET, mean increase", "setting": "[3]", "result": 25.7, "unit": "ms"}, {"measurement": "diastolic function/relaxation (E/A ratio and E/e′)", "setting": "plasma concentrations >2000 ng/mL", "result": "no significant effects"}, {"measurement": "SET, placebo-corrected change from Baseline (LS mean difference±SE)", "setting": "plasma concentrations >2000 ng/mL (median 2425 ng/mL), 6 hours postdose", "result": "25.6 ± 7.71", "unit": "ms"}, {"measurement": "IVRT (mitral inflow doppler), placebo-corrected change from Baseline (LS mean difference±SE)", "setting": "[4]", "result": "12.0 ± 3.92", "unit": "ms"}, {"measurement": "LVEDV, placebo-corrected change from Baseline (LS mean difference±SE)", "setting": "[4]", "result": "-9.68 ± 2.95", "unit": "mL"}, {"measurement": "LVEF, placebo-corrected change from Baseline (LS mean difference±SE)", "setting": "[4]", "result": "3.22±1.48", "unit": "%"}, {"measurement": "LVESD, placebo-corrected change from Baseline (LS mean difference±SE)", "setting": "[4]", "result": "−0.306±0.077", "unit": "cm"}, {"measurement": "LVESV, placebo-corrected change from Baseline (LS mean difference±SE)", "setting": "[4]", "result": "-6.03 ± 1.87", "unit": "mL"}, {"measurement": "LVFS, placebo-corrected change from Baseline (LS mean difference±SE)", "setting": "[4]", "result": "6.29±1.55", "unit": "%"}, {"measurement": "LVGCS, placebo-corrected change from Baseline (LS mean difference±SE)", "setting": "[4]", "result": "-2.85 ± 0.99", "unit": "%"}, {"measurement": "LVGLS, placebo-corrected change from Baseline (LS mean difference±SE)", "setting": "[4]", "result": "-1.78 ± 0.76", "unit": "%"}, {"measurement": "stroke volume, placebo-corrected change from Baseline (LS mean difference±SE)", "setting": "[4]", "result": "8.20 ± 3.99", "unit": "mL"}]}
